In patent US20230312550A1, “N-(2-(4-CYANOTHIAZOLIDIN-3-YL)-2-OXOETHYL)-QUINOLINE-4-CARBOXAMIDES” (AstraZeneca AB, priority 2020, published 2023):
In brackets after ≈: the same amount, converted by molar mass.

Legend:
FAP [1] = biological target: T1, FAP (Homo sapiens (Human), UniProt Q12884); assay: FAP plasma inhibition assay, human plasma; type: biochemical; conditions: human plasma diluted 1:40, Ala-Pro-AMC 75 μM
Description: (§1) This assay was adapted from the method described in Example 237 for detection of FAP target engagement enzyme activity in plasma. Plasma (anticoagulant K2EDTA) was used as the enzyme source: Human plasma (Pooled from AZ Biobank), Mouse plasma (AZ AST Biobank), and Cynomolgus plasma (BioIVT, #NHP00PLK2FNN, lot CYN222895). 384-Well black fluotrack PS plates (Greiner 781076) were used. 20 μL diluted plasma (Cynomolgus and Human plasma dilution 1:40, Mouse plasma dilution 1:67) in buffer (PBS, 0.1% BSA) was added to 0.6 μL compounds (in DMSO). Compounds were tested using 10 CR, 3 fold dilution series from 500 nM FAC. Two replicates for each assay point were run on the same plate. A fluorescence blank read was taken before substrate addition. […] Plates were incubated for 40 min at rt in the dark. […] IC50 values were determined by plotting % inhibition versus log compound concentration.
Target sequence in this assay (Q12884 24-760): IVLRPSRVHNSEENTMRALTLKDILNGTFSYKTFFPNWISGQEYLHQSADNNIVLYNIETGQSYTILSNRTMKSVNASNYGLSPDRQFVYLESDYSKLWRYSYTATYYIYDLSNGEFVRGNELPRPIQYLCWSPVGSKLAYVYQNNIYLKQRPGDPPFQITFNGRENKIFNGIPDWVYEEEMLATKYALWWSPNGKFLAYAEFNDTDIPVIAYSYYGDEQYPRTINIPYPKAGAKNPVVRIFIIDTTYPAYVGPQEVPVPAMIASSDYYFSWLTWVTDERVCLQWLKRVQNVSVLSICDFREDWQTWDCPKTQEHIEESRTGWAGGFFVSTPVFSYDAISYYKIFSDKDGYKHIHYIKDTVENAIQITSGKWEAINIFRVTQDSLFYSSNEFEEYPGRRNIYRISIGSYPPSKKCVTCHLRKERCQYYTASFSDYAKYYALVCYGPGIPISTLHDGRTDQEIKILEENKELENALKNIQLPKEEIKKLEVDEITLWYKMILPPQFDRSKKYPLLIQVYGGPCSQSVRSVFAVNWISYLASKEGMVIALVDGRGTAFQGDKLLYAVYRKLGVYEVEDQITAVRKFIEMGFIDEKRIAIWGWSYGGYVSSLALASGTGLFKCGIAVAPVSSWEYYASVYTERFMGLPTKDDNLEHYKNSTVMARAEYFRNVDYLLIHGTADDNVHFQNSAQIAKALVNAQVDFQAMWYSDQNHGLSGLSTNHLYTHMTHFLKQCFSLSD

[2] = biological target: human Fibroblast activation protein alpha (hFAP) (Homo sapiens (Human), UniProt Q12884); assay: hFAP inhibition assay (tight binders); type: biochemical; conditions: Ala-Pro-AMC 20 μM, n = 1 or geometric mean n = 2-6; also: hFAP 2.4 pM
Sequence of human Fibroblast activation protein alpha (hFAP) (Q12884 38-760): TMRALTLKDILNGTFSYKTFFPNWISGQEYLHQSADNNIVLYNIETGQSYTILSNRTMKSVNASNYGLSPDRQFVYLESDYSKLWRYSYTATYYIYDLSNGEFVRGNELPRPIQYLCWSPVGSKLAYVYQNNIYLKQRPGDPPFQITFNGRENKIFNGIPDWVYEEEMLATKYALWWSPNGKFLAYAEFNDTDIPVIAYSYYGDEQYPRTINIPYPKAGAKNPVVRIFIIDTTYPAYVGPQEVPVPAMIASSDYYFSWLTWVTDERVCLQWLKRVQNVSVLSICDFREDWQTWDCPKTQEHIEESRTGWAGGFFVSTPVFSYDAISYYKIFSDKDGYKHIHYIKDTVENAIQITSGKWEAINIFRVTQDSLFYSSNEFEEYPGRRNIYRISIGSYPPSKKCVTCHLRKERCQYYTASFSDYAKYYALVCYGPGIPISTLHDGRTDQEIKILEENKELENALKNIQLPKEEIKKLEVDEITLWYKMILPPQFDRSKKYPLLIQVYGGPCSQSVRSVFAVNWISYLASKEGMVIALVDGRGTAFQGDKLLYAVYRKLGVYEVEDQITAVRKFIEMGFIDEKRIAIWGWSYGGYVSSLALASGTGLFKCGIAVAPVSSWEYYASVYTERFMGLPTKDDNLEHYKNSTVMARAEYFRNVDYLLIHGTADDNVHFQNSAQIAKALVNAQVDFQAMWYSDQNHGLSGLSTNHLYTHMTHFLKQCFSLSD
Description: The plates were read on a PHERAstar® reader with excitation 340 nm and emission 460 nm. Data were analyzed in Genedata Screener®. IC50 values were determined by plotting % inhibition versus log compound concentration and using a one site dose response model.

hFAP (M39-A757) = hFAP (M39-A757) (Homo sapiens (Human), UniProt Q12884); assay: hFAP binding assay (surface plasmon resonance); conditions: SPR, 20° C.; for hFAP Binding assay k(off) / hFAP Binding assay k(on): single cycle kinetics; for Kd: n = 1 or geometric mean n = 2-4
Sequence of hFAP (M39-A757) (Q12884 39-757): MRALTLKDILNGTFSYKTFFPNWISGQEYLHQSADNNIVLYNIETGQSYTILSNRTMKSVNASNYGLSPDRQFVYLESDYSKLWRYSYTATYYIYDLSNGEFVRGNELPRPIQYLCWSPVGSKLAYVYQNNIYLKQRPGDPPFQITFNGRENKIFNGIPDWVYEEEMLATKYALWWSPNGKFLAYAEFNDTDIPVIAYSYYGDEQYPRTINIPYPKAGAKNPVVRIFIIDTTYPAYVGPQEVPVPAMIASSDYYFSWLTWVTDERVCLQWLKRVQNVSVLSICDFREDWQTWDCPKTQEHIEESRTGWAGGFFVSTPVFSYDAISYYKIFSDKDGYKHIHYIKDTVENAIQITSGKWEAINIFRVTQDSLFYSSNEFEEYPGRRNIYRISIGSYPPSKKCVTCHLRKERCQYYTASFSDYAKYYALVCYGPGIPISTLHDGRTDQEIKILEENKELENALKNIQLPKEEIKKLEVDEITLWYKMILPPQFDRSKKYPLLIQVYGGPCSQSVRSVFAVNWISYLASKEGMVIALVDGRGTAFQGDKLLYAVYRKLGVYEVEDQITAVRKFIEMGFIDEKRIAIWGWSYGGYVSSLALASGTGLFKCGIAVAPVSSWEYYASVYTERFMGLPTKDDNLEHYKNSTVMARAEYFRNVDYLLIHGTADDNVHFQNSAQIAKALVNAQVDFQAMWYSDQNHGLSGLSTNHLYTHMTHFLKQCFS

[3] = Metabolic stability in rat hepatocytes (rHep); conditions: n = 1 or geometric mean of n = 2-3
[4] = biological target: Prolyl endopeptidase, Prolyl Oligopeptidase (hPREP) (Homo sapiens (Human), UniProt P48147); assay: hPrep inhibition assay; type: biochemical; conditions: hPREP 0.6 nM, Z-Gly-Pro-amino-methylcoumarin 50 μM; read-out: PREP IC50
Sequence of Prolyl endopeptidase, Prolyl Oligopeptidase (hPREP) (P48147 whole entry): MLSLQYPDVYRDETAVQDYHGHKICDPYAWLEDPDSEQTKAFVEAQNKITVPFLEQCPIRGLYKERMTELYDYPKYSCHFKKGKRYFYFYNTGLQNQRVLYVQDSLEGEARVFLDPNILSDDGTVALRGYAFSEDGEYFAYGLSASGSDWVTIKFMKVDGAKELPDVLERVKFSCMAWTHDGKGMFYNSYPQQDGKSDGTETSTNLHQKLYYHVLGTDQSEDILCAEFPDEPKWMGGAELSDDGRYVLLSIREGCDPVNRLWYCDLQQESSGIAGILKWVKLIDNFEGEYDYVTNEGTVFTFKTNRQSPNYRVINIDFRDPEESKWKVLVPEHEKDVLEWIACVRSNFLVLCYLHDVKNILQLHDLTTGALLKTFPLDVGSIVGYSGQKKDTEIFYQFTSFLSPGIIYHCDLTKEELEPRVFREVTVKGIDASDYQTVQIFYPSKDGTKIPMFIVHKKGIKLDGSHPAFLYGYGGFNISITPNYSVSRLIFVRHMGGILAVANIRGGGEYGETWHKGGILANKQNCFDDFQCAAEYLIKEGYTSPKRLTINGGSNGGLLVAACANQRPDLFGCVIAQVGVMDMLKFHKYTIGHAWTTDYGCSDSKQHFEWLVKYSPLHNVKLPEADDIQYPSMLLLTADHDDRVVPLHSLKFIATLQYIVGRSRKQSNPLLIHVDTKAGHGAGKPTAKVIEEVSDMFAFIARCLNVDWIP
In short: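 Recombinant human PREP at 0.6 nM final with Z-Gly-Pro-AMC substrate at 50 μM final in Tris-HCl pH 7.5, NaCl, Triton X-100, glutathione; 15 min rt preincubation then 20 min rt reaction in dark. AMC fluorescence (ex 340/em 460 nm); IC50 from one-site dose-response fit of % inhibition.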

Caco-2 cell permeability = conditions: human
Description: Caco-2 cell permeability was measured as described in Mol Pharm 2017, 14, 1601.

FAP [5] = biological target: FAP (Mus musculus (Mouse), UniProt P97321); assay: FAP plasma inhibition assay, mouse plasma; type: biochemical; conditions: mouse plasma diluted 1:67, Ala-Pro-AMC 75 μM
Sequence of FAP (Mus musculus (Mouse), UniProt P97321) (P97321 24-761): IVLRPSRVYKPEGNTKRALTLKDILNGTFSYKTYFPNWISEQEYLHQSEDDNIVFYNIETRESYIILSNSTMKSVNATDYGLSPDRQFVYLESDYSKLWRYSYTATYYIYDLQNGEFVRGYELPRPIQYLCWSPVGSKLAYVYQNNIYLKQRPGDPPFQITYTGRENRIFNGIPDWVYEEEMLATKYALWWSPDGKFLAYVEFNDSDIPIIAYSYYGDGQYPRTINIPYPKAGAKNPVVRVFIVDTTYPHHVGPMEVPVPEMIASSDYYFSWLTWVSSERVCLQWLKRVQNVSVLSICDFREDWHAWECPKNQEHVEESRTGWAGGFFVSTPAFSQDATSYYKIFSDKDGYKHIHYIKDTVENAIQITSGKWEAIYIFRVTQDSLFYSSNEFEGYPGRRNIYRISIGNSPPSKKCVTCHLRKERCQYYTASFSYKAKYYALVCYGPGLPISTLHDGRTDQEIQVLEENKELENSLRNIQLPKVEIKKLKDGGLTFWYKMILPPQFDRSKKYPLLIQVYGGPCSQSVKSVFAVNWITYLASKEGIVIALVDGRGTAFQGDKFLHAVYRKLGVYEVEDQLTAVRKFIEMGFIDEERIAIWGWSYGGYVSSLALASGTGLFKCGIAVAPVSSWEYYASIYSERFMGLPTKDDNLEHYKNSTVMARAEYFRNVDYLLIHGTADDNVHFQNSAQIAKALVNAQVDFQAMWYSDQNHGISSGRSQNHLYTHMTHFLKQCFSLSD
Description: as §1

Kinetic solubility = conditions: kinetic from dmso stock, Solubility, kinetic solubility; n = 1 or average of n = 2-3
Description: Kinetic solubility was measured as described in Comput Aided Mol Des 2015, 29, 795.

[6] = Metabolic stability in human liver microsomes (HLM); conditions: human, HLM CLint, n = 1 or average of n = 2-3
Description: Metabolic stability in HLM was measured as described in J Comput Aided Mol Des 2015, 29, 795.

[7] = Metabolic stability in human hepatocytes (hHep); type: in vitro ADME; conditions: n = 1 or geometric mean of n = 2
FAP [8] = biological target: T1, FAP; assay: hFAP inhibition assay; type: biochemical; conditions: hFAP […], Ala-Pro-AMC 20 μM; n = 1 or geometric mean n = 2-3
In short: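 Human FAP (0.48 nM) in 100 mM Tris HCl, 100 mM NaCl, 0.05% Chaps, pH 7.4 was preincubated 15 min at rt in the dark with compounds (10-point, 3-fold series from 50 μM). Substrate was added from a 40 μM solution, then 30 min at rt. Fluorescence read at ex 340/em 460 nm; IC50 from one-site dose-response fit of % inhibition.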
Target sequence in this assay (Q12884 38-760): as the sequence (Q12884 38-760) above

Structure (SMILES) | IC50 (FAP [1]) | IC50 [2] | hFAP Binding assay k(off) (hFAP (M39-A757)) | hFAP Binding assay k(on) (hFAP (M39-A757)) | Kd (hFAP (M39-A757)) | rHep CLint [3] | IC50 [4] | Papp A→B (Caco-2 cell permeability) | Papp B→A (Caco-2 cell permeability) | efflux ratio (Caco-2 cell permeability) | IC50 (FAP [5]) | solubility (Kinetic solubility) | microsomal CLint [6] | Papp (Caco-2 cell permeability) | hHep CLint [7] | IC50 (FAP [8])
C[C@H]1CCCN(c2ccc3nccc(C(=O)NCC(=O)N4CSC[C@H]4C#N)c3c2)C1=O (single isomer, unassigned) [Example 203, N-(2-((R)-4-Cyanothiazolidin-3-yl)-2-oxoethyl)-6-((R*)-3-methyl-2-oxopiperidin-1-yl)quinoline-4-carboxamide] | 0.4 nM | 0.26 nM | 0.000063 s⁻¹ | 440000 M⁻¹ s⁻¹ | 0.15 nM | 2.9 μL/min/1E6 | 3500 nM | 0.4 ×10⁻⁶ cm/s | 8 ×10⁻⁶ cm/s | 20 | 0.5 nM | 540 µM (≈ 236 µg/mL) | 12 µL/min/mg | – | – | –
C[C@@H]1CCCN(c2ccc3nccc(C(=O)NCC(=O)N4CSC[C@H]4C#N)c3c2)C1=O (single isomer, unassigned) [Example 204, N-(2-((R)-4-Cyanothiazolidin-3-yl)-2-oxoethyl)-6-((R*)-3-methyl-2-oxopiperidin-1-yl)quinoline-4-carboxamide] | 0.2 nM | 0.067 nM | 0.000058 s⁻¹ | 850000 M⁻¹ s⁻¹ | 0.068 nM | 1.8 μL/min/1E6 | 920 nM | 0.44 ×10⁻⁶ cm/s | 8.5 ×10⁻⁶ cm/s | 19 | 0.3 nM | 480 µM (≈ 210 µg/mL) | 8 µL/min/mg | – | – | –
N#C[C@@H]1CSCN1C(=O)CNC(=O)c1c(F)cnc2ccc(N3CCOCC3)cc12 [Example 2, (R)—N-(2-(4-Cyanothiazolidin-3-yl)-2-oxoethyl)-3-fluoro-6-morpholino-quinoline-4-carboxamide] | 8.1 nM | 0.52 nM | 0.0038 s⁻¹ | 410000 M⁻¹ s⁻¹ | 9.5 nM | 3 μL/min/1E6 | 1700 nM | 0.98 ×10⁻⁶ cm/s | 31 ×10⁻⁶ cm/s | 32 | 7.3 nM | 83 µM (≈ 35.6 µg/mL) | 22 µL/min/mg | 23 ×10⁻⁶ cm/s | <1 μL/min/1E6 | –
CC1(C)OCCN(c2ccc3nccc(C(=O)NCC(=O)N4CSC[C@H]4C#N)c3c2)C1=O [Example 16, (R)—N-(2-(4-Cyanothiazolidin-3-yl)-2-oxoethyl)-6-(2,2-dimethyl-3-oxomorpholino)quinoline-4-carboxamide] | 0.2 nM | 0.11 nM | 0.000041 s⁻¹ | 740000 M⁻¹ s⁻¹ | 0.054 nM | <1 μL/min/1E6 | 1600 nM | 0.16 ×10⁻⁶ cm/s | 4.2 ×10⁻⁶ cm/s | 26 | 0.4 nM | 170 µM (≈ 77.1 µg/mL) | < 3 µL/min/mg | – | – | –
C[C@@H]1COC[C@H](C)N1c1ccc2nccc(C(=O)NCC(=O)N3CSC[C@H]3C#N)c2c1 [Example 90, N-(2-((R)-4-Cyanothiazolidin-3-yl)-2-oxoethyl)-6-((3S,5R)-3,5-dimethyl-morpholino)quinoline-4-carboxamide] | – | 0.35 nM | 0.00010 s⁻¹ | 480000 M⁻¹ s⁻¹ | 0.38 nM | 20 μL/min/1E6 | 1100 nM | 1.2 ×10⁻⁶ cm/s | 19 ×10⁻⁶ cm/s | 16 | – | > 1000 µM | 100 µL/min/mg | – | 4.6 μL/min/1E6 | 0.75 nM
CC1(C)Cc2c(-c3ccc4nccc(C(=O)NCC(=O)N5CSC[C@H]5C#N)c4c3)cnn2C1 [Example 123, (R)—N-(2-(4-Cyanothiazolidin-3-yl)-2-oxoethyl)-6-(5,5-dimethyl-5,6-dihydro-4H-pyrrolo[1,2-b]pyrazol-3-yl)quinoline-4-carboxamide] | – | 0.083 nM | 0.00042 s⁻¹ | 3000000 M⁻¹ s⁻¹ | 0.14 nM | 7.1 μL/min/1E6 | 740 nM | 0.17 ×10⁻⁶ cm/s | 29 ×10⁻⁶ cm/s | 170 | – | 280 µM (≈ 129 µg/mL) | 32 µL/min/mg | 14 ×10⁻⁶ cm/s | 1.6 μL/min/1E6 | 0.25 nM
CC(F)(F)C1CN(c2ccc3nccc(C(=O)NCC(=O)N4CSC[C@H]4C#N)c3c2)C1 [Example 147, (R)—N-(2-(4-Cyanothiazolidin-3-yl)-2-oxoethyl)-6-(3-(1,1-difluoroethyl)-azetidin-1-yl)quinoline-4-carboxamide] | 0.1 nM | 0.067 nM | 0.00012 s⁻¹ | 2800000 M⁻¹ s⁻¹ | 0.045 nM | 2.9 μL/min/1E6 | 570 nM | 2.7 ×10⁻⁶ cm/s | 40 ×10⁻⁶ cm/s | 15 | 0.2 nM | 40 µM (≈ 17.8 µg/mL) | 17 µL/min/mg | – | – | –
Cn1nccc1-c1ccc2nccc(C(=O)NCC(=O)N3CSC[C@H]3C#N)c2c1 [Example 174, (R)—N-(2-(4-Cyanothiazolidin-3-yl)-2-oxoethyl)-6-(1-methyl-1H-pyrazol-5-yl)quinoline-4-carboxamide] | 0.2 nM | 0.26 nM | 0.00024 s⁻¹ | 1900000 M⁻¹ s⁻¹ | 0.13 nM | 7.2 μL/min/1E6 | 87 nM | 0.54 ×10⁻⁶ cm/s | 25 ×10⁻⁶ cm/s | 46 | 0.4 nM | 800 µM (≈ 325 µg/mL) | 12 µL/min/mg | – | – | 0.44 nM
COc1ccc(-c2ccc3nccc(C(=O)NCC(=O)N4CSC[C@H]4C#N)c3c2)cn1 [Example 178, (R)—N-(2-(4-Cyanothiazolidin-3-yl)-2-oxoethyl)-6-(6-methoxypyridin-3-yl)quinoline-4-carboxamide] | 0.1 nM | 0.042 nM | 0.00017 s⁻¹ | 3100000 M⁻¹ s⁻¹ | 0.053 nM | 7.2 μL/min/1E6 | 120 nM | – | – | – | 0.1 nM | 6 µM (≈ 2.6 µg/mL) | 16 µL/min/mg | – | – | 0.2 nM
CC1(CS(C)(=O)=O)CN(c2ccc3nccc(C(=O)NCC(=O)N4CSC[C@H]4C#N)c3c2)C1 [Example 188, (R)—N-(2-(4-Cyanothiazolidin-3-yl)-2-oxoethyl)-6-(3-methyl-3-((methylsulfonyl)methyl)azetidin-1-yl)quinoline-4-carboxamide] | – | 0.19 nM | 0.000022 s⁻¹ | 2600000 M⁻¹ s⁻¹ | 0.011 nM | 1.8 μL/min/1E6 | 430 nM | 0.18 ×10⁻⁶ cm/s | 3.7 ×10⁻⁶ cm/s | 21 | – | 990 µM (≈ 483 µg/mL) | 3.1 µL/min/mg | 0.28 ×10⁻⁶ cm/s | <1 μL/min/1E6 | 0.28 nM
CN1CCC(F)(c2ccc3nccc(C(=O)NCC(=O)N4CSC[C@H]4C#N)c3c2)CC1 [Example 195, (R)—N-(2-(4-Cyanothiazolidin-3-yl)-2-oxoethyl)-6-(4-fluoro-1-methyl-piperidin-4-yl)quinoline-4-carboxamide] | 0.9 nM | 0.39 nM | 0.000061 s⁻¹ | 190000 M⁻¹ s⁻¹ | 0.33 nM | 1.8 μL/min/1E6 | 1200 nM | 0.4 ×10⁻⁶ cm/s | 4.8 ×10⁻⁶ cm/s | 12 | 1.4 nM | 830 µM (≈ 366 µg/mL) | < 3 µL/min/mg | – | – | –
